In US8709405B2, “Cancer vaccines containing epitopes of oncofetal antigen” (South Alabama Medical Science Foundation, priority 2002, dated 2014):

Assays:
Format in all cases: cell-based, BALB/c mouse
[1] = tested on: Th1 clone NC4; assay: BUdR incorporation ELISA proliferation assay, Th1 clone NC4; conditions: Table 12
Protocol: (§1) The epitopes recognized by 15 iLRP-reactive T cell clones derived from either naive BALB/c mice, BALB/c mice bearing MCA1315 fibrosarcoma tumors, or from BALB/c mice immunized with either 1 or 10 μg of recombinant murine iLRP were determined by testing the proliferation of those clones to overlapping peptides spanning the region of the iLRP molecule recognized by each clone in the presence of IL-2, as a growth factor for T cells and irradiated, T cell-depleted, syngeneic spleen cells as antigen-presenting cells. Proliferation was measured through ELISA determination of 5-bromodeoxyuridine incorporation during culture.
(§2) More specifically, the epitope-specificity of the iLRP-specific Th1, Tc, and Ts clones was determined using a modification of the 5′-bromodeoxyuridine (BudR) incorporation ELISA technique described in Rohrer, J. W., A. L. Barsoum, D. L. Dyess, J. A. Tucker, and J. H. Coggin, Jr. 1999. Human breast carcinoma patients develop clonable oncofetal antigen-specific effector and regulatory T lymphocytes. J. Immunol. 162:6880, using the Biotrak BUdR incorporation assay (Amersham, Arlington Heights, Ill.). […] When the required color density was reached, the reaction was stopped by adding 25 μl of 1M sulfuric acid to each well and the plate read on a microELISA reader at 450 nm. […]

[2] = tested on: Th1 Clone NC1; assay: BUdR incorporation ELISA proliferation assay, Th1 clone NC1; conditions: Table 11
Protocol: as §1, §2

[3] = tested on: Tc Clone L2; assay: BUdR incorporation ELISA proliferation assay, Tc clone L2; conditions: Table 11
Protocol: as §1, §2

[4] = tested on: Th1 clone M2; assay: BUdR incorporation ELISA proliferation assay, Th1 clone M2; conditions: Table 12
Protocol: as §1, §2

[5] = tested on: Th1 clone H1; assay: BUdR incorporation ELISA proliferation assay, Th1 clone H1; conditions: Table 12; 100 ng/well, APC, 100 U/ml IL-2; two values given
Protocol: as §1, §2

[6] = tested on: Th1 clone L3; assay: BUdR incorporation ELISA proliferation assay, Th1 clone L3; conditions: Table 12
Protocol: as §1, §2

TEWVGATTDWS [P32 (285-295)]
Response of clone NC4 (in words) [1]: responded best

GEWTAPAPEFTA [P18 (229-240)]
Response of Th1 clone NC1 (in words) [2]: responded best | Proliferation of CD8 Tc clone L2 (in words) [3]: proliferated identically

QVPSVPIQQFPT [P24 (253-264)]
Response of clone M2 (in words) [4]: responded best

AQPEVADWSEGV [P21 (241-252)]
Proliferation Results (A450) of Th1 Clone H1 [5]: .02, .02 A450 | Response of clone L3 (in words) [6]: responded best

TAQATEWVGATT [P31 (281-292)]
Proliferation Results (A450) of Th1 Clone L3 ([6]; 100 ng/well, APC, 100 U/ml IL-2, two values given): .02, .02 A450
